Experimental findings from patent US12318368B2, “Physics-driven discovery of novel small therapeutic compounds for use as a BCL-2 inhibitor” (BAHCESEHIR UNIVERSITESI, priority 2020, dated 2025) are described below.

Structures are written as SMILES.

The test system of the test is HCT-116 cell lines. The experiment in a line: MTT cell proliferation assay. The class given is cell-based. Here is the method: For cell culture experiments various cancer cell lines, HCT-116 colon cancer, U87-MG glial tumor, MCF7 breast cancer cell lines were used. Cells were seeded with high glucose DMEM medium (Biosera) supplemented with 10% FBS (Gibco) and 1× penicillin/streptomycin (Multicell). Twenty-four hours prior to molecule treatment, 10,000 cells were seeded into each well of 24-well cell culture plates. Molecules were used by preparing 4 mM stock solution in DMSO (Amresco). For molecule treatment, molecule stock solutions were diluted in DMEM with 10% FBS and added onto cells in each corresponding well. Final concentration of vehicle DMSO was 2% at maximum. […] We calculated the number of cells to be seeded to make sure that none of the cells reaches more than 60% confluency during the treatment period, as higher plate confluency levels would slow down cell proliferation independently from the molecule treatment.
Values of half-maximal inhibitory concentration were (IC50) determined by MTT cell proliferation assays. […] 570 nm absorbance values were recorded and IC50 values were calculated by dose response—inhibition curves and nonlinear regression analysis on GraphPad Prism 8 software. […] Following the initial incubation day, molecules were added and after incubation with MTT at 37° C. for 4 hours, formazan was solubilized with DMSO (Sigma-Aldrich, St. Louis, USA) and absorbance was measured at 570 nm. […]
(In general: Tetrazolium assays rely on reduction of a dye to a coloured formazan, in cell work by metabolically active cells.)

As for `COCCN1C(=O)/C(=C/c2ccc(OCC(=O)Nc3ccc(C)cc3)cc2)S/C1=N\c1ccccc1` [compound of formula I], the “proliferation of the HCT-116 cells versus vehicle group (FIG. 1)” value (HCT-116 cells, compared with vehicle (max 2% DMSO)) was “reduced proliferation and apoptotic cell structures”. In addition, the IC50 (Homo sapiens, 72 h, HCT-116 colon cancer cells, MTT, single treatment, three days results, absorbance 570 nm, read-out: IC50 (half-maximal inhibitory concentration)) came out at 25 µM.
